Read-outs that look alike come from different tables or passages of the source. A value given as a limit tells only on which side of the number the result lay.

Data set [1] in a line: Stability of QC samples of 8 compounds in rat plasma (25 °C 4 h, autosampler 12 h, three freeze-thaw cycles, −80 °C 7 d). Format: in vitro ADME. The procedure: The calibration curves were assessed at eight concentration levels using the correlation coefficient (r). The lower limit of quantification (LLOQ) could fulfil the analytical requirements and achieved reliable accuracy and precision with a signal-to-noise ratio (S/N) ≥ 10. To determine intra- and inter-day precision and accuracy, six replicate quality control (QC) samples at three concentrations were prepared. Inter- and intra-day precision was evaluated by determining relative standard deviation (RSD) values, while accuracy was expressed in terms of the relative error (RE). The extraction recoveries were determined using three concentration levels and calculated by comparing the peak area of extracted samples with post-extracted spiked samples. Subsequently, matrix effects were assessed using the peak area of post-extracted spiked samples contrasted with QC samples at the three concentration levels. The stability test of QC samples at the three concentration levels was as follows: storage at 25 °C for 4 h, storage in an autosampler for 12 h, freeze-thaw cycle for three times, and storage at −80 °C for 7 d.
The stability tests were carried out under three freeze-thaw cycles, at 25 °C for 4 h, in an autosampler for 12 h, and at −80 °C for 7 d.

Data set [2] is described as follows: Pharmacokinetic study in SD rats after oral administration of TWMM (UPLC-QQQ-MS of plasma). Format: in vivo, Sprague-Dawley (SD) rats. Particulars: oral TWMM 9.6 g/kg. The procedure:
Chromatographic separation was performed using an ACQUITY UPLC H-Class system equipped with a 1.8 μm HSS T3 analytical column (100 mm × 2.1 i.d., Waters Corporation, Milford, USA). […] ESI source was set to negative ionisation mode while the analysis was performed using multiple reaction monitorin. Ion spray voltage (3000 V), capillary temperature (450 °C), and the source parameters of the nine compounds are shown in Table 2.
The data obtained from the UPLC/Q-Orbitrap MS was imported into Xcalibur 4.0 software for analysis. Furthermore, the constituents acquired using GCMS-QP 2010 were profiled by comparison using the National Institute of Standards and Technology (NIST) database. The pharmacokinetic data were processed through MassLynx 4.1, and DAS 2.0 software was used to calculate the pharmacokinetic parameters according to the compartment model.
Six male SD rats (average weight: 220 ± 10 g) were acquired from Beijing Vital-River Laboratory Animal Technology Co., Ltd. All rats were acclimatized to an environmentally controlled laboratory for a week. Following this period, the rats were exposed to fasting conditions for 12 h but were allowed free access to water before the experiment. The rats were orally administered TWMM at a dose of 9.6 g/kg. Blood samples (300 µL) were collected into heparinized centrifuge tubes from the fossa orbitalis at pre-dose and 0.03, 0.08, 0.17, 0.25, 0.5, 1, 2, 4, 8, 12, 24, and 36 h intervals. The samples were immediately centrifuged at 6000 g for 10 min at 4 °C and the supernatants were transferred to clean centrifuge tubes.
Each 100 µL plasma sample was mixed with 20 µL of methanol, 20 µL of IS (5 µg/mL), and 600 µL acetonitrile. The mixtures were centrifuged at 15,000 g for 10 min at 4 °C after being vortexed for 3 min. The obtained supernatants were transferred to clean 1.5 mL centrifuge tubes, followed by evaporation under a milt nitrogen stream. Next, the obtained residues were individually redissolved in 100 µL of methanol and centrifuged at 15,000 g for 10 min at 4 °C after vortexed for 3 min. Lastly, 10 µL of individual supernatant was injected for analysis.

Where [3] appears, read: QC concentration 1 ng/mL, autosampler 12 h, 4 °C, rat plasma, n = 3.
[4] abbreviates: QC concentration 1 ng/mL, long term 7 day, –80 °C, rat plasma, n = 3.
The mark [5] stands for this setting: QC concentration 1 ng/mL, room temperature 25 °C, rat plasma, n = 3.
The mark [6] stands for this setting: QC concentration 1 ng/mL, three freeze/thaw cycles, rat plasma, n = 3.
[7] abbreviates: QC concentration 10 ng/mL, autosampler 12 h, 4 °C, rat plasma, n = 3.
Where [8] appears, read: QC concentration 10 ng/mL, long term 7 day, –80 °C, rat plasma, n = 3.
Setting [9] is: QC concentration 10 ng/mL, room temperature 25 °C, rat plasma, n = 3.
The mark [10] stands for this setting: QC concentration 10 ng/mL, three freeze/thaw cycles, rat plasma, n = 3.
Setting [11] is: QC concentration 200 ng/mL, autosampler 12 h, 4 °C, rat plasma, n = 3.
[12] abbreviates: QC concentration 200 ng/mL, long term 7 day, –80 °C, rat plasma, n = 3.
[13] abbreviates: QC concentration 200 ng/mL, room temperature 25 °C, rat plasma, n = 3.
Setting [14] is: QC concentration 200 ng/mL, three freeze/thaw cycles, rat plasma, n = 3.

Usually Cmax stands for the highest concentration seen after dosing. By Tmax is commonly meant the time from dosing to the highest level. Take `COc1ccc(-c2cc(=O)c3c(O)cc(O[C@@H]4O[C@H](CO[C@@H]5O[C@@H](C)[C@H](O)[C@@H](O)[C@H]5O)[C@@H](O)[C@H](O)[C@H]4O)cc3o2)cc1` [Linarin]: the “Stability in rat plasma, Autosampler (12 h, 4 °C), Measured” value (“Stability in rat plasma, Autosampler” for short) is recorded as 1.1 ± 0.1 ng/mL in data set [1] (setting [3]), 10.2 ± 0.6 ng/mL in data set [1] (setting [7]) and 208.5 ± 2.0 ng/mL in data set [1] (setting [11]). The “Stability in rat plasma, Long term (7 day, –80 °C), Measured” value (shortened to “Stability in rat plasma, Long term”) in data set [1] (setting [4]) is listed as 1.1 ± 0.1 ng/mL; in data set [1] (setting [8]), 10.2 ± 0.4 ng/mL; in data set [1] (setting [12]), 221.0 ± 11.2 ng/mL. The “Stability in rat plasma, Room temperature (4 h, 25 °C), Measured” value (“Stability … (4 h, 25 °C), Measured” below) is reported as 1.0 ± 0.1 ng/mL in data set [1] (setting [5]), 11.9 ± 0.1 ng/mL in data set [1] (setting [9]) and 223.3 ± 5.0 ng/mL in data set [1] (setting [13]). In addition, the “Stability in rat plasma, Three freeze/thaw cycles, Measured” value in data set [1] (setting [6]) is on record as 1.0 ± 0.0 ng/mL; in data set [1] (setting [10]) it was 11.6 ± 0.5 ng/mL; in data set [1] (setting [14]), 219.4 ± 13.8 ng/mL. Further, the “AUC (0–36)” value in data set [2] (n = 6) turned out to be 12.04 ± 4.72 ng·h/mL. The “AUC (0–∞)” value in data set [2] (n = 6) was 12.04 ± 4.72 ng·h/mL. The same compound gave a Cmax in data set [2] (n = 6) of 12.78 ± 8.82 ng/mL. Moreover, the “MRT (0–36)” value in data set [2] (n = 6) turned out to be 4.26 ± 2.67 h. Besides, the “MRT (0–∞)” value in data set [2] (n = 6) stood at 4.26 ± 2.68 h. In addition, the Tmax in data set [2] (n = 6) is recorded as 0.16 ± 0.10 h; in data set [2] (n = 6, listed as linarin), at most 1 h. The t1/2 was 2.81 ± 0.21 h in data set [2] (n = 6) and “rapid elimination” in data set [2] (n = 6, listed as linarin).

A word on the half-life: it is the time needed for the level to fall by half in the phase considered. A higher half-life goes with slow decline. For the compound `O=C(/C=C/c1ccc(O)c(O)c1)O[C@@H]1C[C@](O)(C(=O)O)C[C@@H](O)[C@H]1O` [Chlorogenic acid], the “Stability in rat plasma, Three freeze/thaw cycles, Measured” value in data set [1] (rat, plasma, 1 ng/mL) stood at 1.1 ± 0.1 ng/mL; in data set [1] (rat, plasma, 10 ng/mL) it was 9.8 ± 0.8 ng/mL; in data set [1] (rat, plasma, 200 ng/mL), 212.6 ± 19.4 ng/mL. The “Stability … (4 h, 25 °C), Measured” value in data set [1] (rat, plasma, 1 ng/mL) came to 1.2 ± 0.1 ng/mL; in data set [1] (rat, plasma, 10 ng/mL), 9.2 ± 0.6 ng/mL; in data set [1] (rat, plasma, 200 ng/mL), 187.6 ± 4.2 ng/mL. The “Stability in rat plasma, Autosampler” value in data set [1] (rat, plasma, 12 h, 1 ng/mL) was 0.9 ± 0.1 ng/mL; in data set [1] (rat, plasma, 12 h, 10 ng/mL) it was 9.1 ± 1.1 ng/mL; in data set [1] (rat, plasma, 12 h, 200 ng/mL), 200.0 ± 14.0 ng/mL. The “Stability in rat plasma, Long term” value came to 1.0 ± 0.1 ng/mL in data set [1] (rat, plasma, 168 h, 1 ng/mL); 10.3 ± 0.5 ng/mL in data set [1] (rat, plasma, 168 h, 10 ng/mL); 214.4 ± 10.5 ng/mL in data set [1] (rat, plasma, 168 h, 200 ng/mL). Also, the half-life in data set [2] (male, Sprague-Dawley, rat, n = 6) is 2.71 ± 0.11 h. In addition, in data set [2] (male, Sprague-Dawley, rat, n = 6, read-out: AUC (0–36)), the AUC(0-t) turned out to be 34 ± 4.55 ng·h/mL. Moreover, in data set [2] (male, Sprague-Dawley, rat, n = 6, read-out: Cmax), the maximum concentration (Cmax) came out at 16.1 ± 4.17 ng/mL. For the same compound, in data set [2] (male, Sprague-Dawley, rat, n = 6, read-out: MRT (0–36)), the MRT last came out at 4.97 ± 0.71 h. For the same compound, the MRT inf in data set [2] (male, Sprague-Dawley, rat, n = 6, read-out: MRT (0–∞)) was determined as 4.97 ± 0.71 h. Also, in data set [2] (male, Sprague-Dawley, rat, read-out: areas under the concentration-time curve (AUC0–∞)), the AUC(0-inf) was 34 ± 4.55 ng·h/mL. Besides, in data set [2] (male, Sprague-Dawley, rat, po, 9.6 g/kg, n = 6, read-out: Tmax), the Tmax is at most 1 h. The t1/2 result in data set [2] (n = 6) is listed as “rapid elimination”.

Consider `CC=C1[C@H](O[C@@H]2O[C@H](CO)[C@@H](O)[C@H](O)[C@H]2O)OC=C(C(=O)OC)[C@H]1CC(=O)OC[C@H]1O[C@@H](OCCc2ccc(O)cc2)[C@H](O)[C@@H](O)[C@@H]1O` (stereo in doubt) [Specnuezhenide], for which the “Stability in rat plasma, Autosampler” value in data set [1] (setting [3]) is 1.1 ± 0.1 ng/mL; in data set [1] (setting [7]) it was 9.8 ± 0.6 ng/mL; in data set [1] (setting [11]), 198.2 ± 2.6 ng/mL. Moreover, the “Stability in rat plasma, Long term” value in data set [1] (setting [4]) worked out at 1.0 ± 0.1 ng/mL; in data set [1] (setting [8]), 10.3 ± 0.6 ng/mL; in data set [1] (setting [12]), 225.6 ± 9.0 ng/mL. For the same compound, the “Stability … (4 h, 25 °C), Measured” value is listed as 1.0 ± 0.1 ng/mL in data set [1] (setting [5]), 10.7 ± 0.2 ng/mL in data set [1] (setting [9]) and 212.7 ± 8.4 ng/mL in data set [1] (setting [13]). The “Stability in rat plasma, Three freeze/thaw cycles, Measured” value in data set [1] (setting [6]) was determined as 1.0 ± 0.0 ng/mL; in data set [1] (setting [10]), 11.5 ± 0.6 ng/mL; in data set [1] (setting [14]), 219.0 ± 8.4 ng/mL. The areas under the concentration-time curve (AUC0–∞) in data set [2] stood at 57.2 ± 30.2 ng·h/mL. Also, the “AUC (0–36)” value in data set [2] (n = 6) worked out at 48.62 ± 19.41 ng·h/mL. The “AUC (0–∞)” value in data set [2] (n = 6) was 57.19 ± 30.25 ng·h/mL. Further, the peak concentration (Cmax) in data set [2] (n = 6) is reported as 13.33 ± 4.61 ng/mL. The “MRT (0–36)” value in data set [2] (n = 6) came out at 11.02 ± 5.63 h. Also, in data set [2] (n = 6), the “MRT (0–∞)” value was found to be 19.29 ± 16.60 h. Moreover, the time of peak concentration (Tmax) is 0.46 ± 0.29 h in data set [2] (n = 6) and at most 1 h in data set [2] (n = 6, listed as specnuezhenide). For the same compound, the t1/2 in data set [2] (n = 6) came out at 20.27 ± 25.00 h.

Jaspolyside displayed an areas under the concentration-time curve (AUC0–∞) in data set [2] of 53.4 ± 32.2 ng·h/mL. For the same compound, in data set [2] (n = 6), the “AUC (0–36)” value was 46.59 ± 9.58 ng·h/mL, the “AUC (0–∞)” value stood at 53.37 ± 32.17 ng·h/mL, the highest concentration (Cmax) came to 14.25 ± 3.67 ng/mL and the “MRT (0–36)” value is given as 11.42 ± 1.29 h. In data set [2] (n = 6), the “MRT (0–∞)” value stood at 15.62 ± 10.83 h, the Tmax was determined as 0.38 ± 0.31 h and the t1/2 stood at 29.15 ± 12.65 h. Also, the time to peak (Tmax) in data set [2] (n = 6, listed as jaspolyside) is at most 1 h.

The values are drawn from publication PMC8491704, “Pharmacokinetic study of Tangwang Mingmu granule for the management of diabetic retinopathy based on network pharmacology” (Pharmaceutical Biology, 2021).
